Tests used:
Assay in all cases: relative viability (nuclei count vs DMSO), 5 days (fraction); higher = more cells survive
[1] = compound: O=S(=O)(c1ccccc1)N(CC(F)(F)F)c1ccc(C(O)(C(F)(F)F)C(F)(F)F)cc1 + Cc1nc(Nc2ncc(C(=O)Nc3c(C)cccc3Cl)s2)cc(N2CCN(CCO)CC2)n1 [Dasatinib] (partner 0.075 µM)
Summary of the method: (§1)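 For relative viability, nuclei counts in treated wells were divided by those in vehicle wells. Lung cancer cell lines had been pin-tool dosed in 1536-well plates the day after seeding and cultured for 5 days, then fixed and stained in one step (final 0.05% Triton X-100, 1% formaldehyde, 1 ug/ml Hoechst) and imaged at 4×. Doses were one drug alone or a fixed anchor-drug dose plus five library-drug doses (not always all listed) in √10 steps, and values are duplicate-plate medians.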

[2] = compound: C1=CC2=C(C=CC(=C2)C=C3C(=O)NC(=NCC4=CC=CS4)S3)N=C1 [RO-3306] + Nc1ncn([C@H]2C[C@H](O)[C@@H](CO)O2)c(=O)n1 [Decitabine] (partner 2 µM)
Summary of the method: as §1

[3] = compound: O=S(=O)(c1ccccc1)N(CC(F)(F)F)c1ccc(C(O)(C(F)(F)F)C(F)(F)F)cc1 + COc1cccc2cc(-c3nc([C@H]4CC[C@H](C(=O)O)CC4)n4ncnc(N)c34)[nH]c12 [OSI-027] (partner 0.5 µM)
Summary of the method: as §1

[4] = compound: C1=CC2=C(C=CC(=C2)C=C3C(=O)NC(=NCC4=CC=CS4)S3)N=C1 [RO-3306] + NC(=O)Nc1cc(-c2cccc(F)c2)sc1C(=O)N[C@H]1CCCNC1 [AZD7762] (partner 0.2 µM)
Summary of the method: as §1

| Cell Line | relative viability ([1]; first compound 0.8 µM) | relative viability ([1]; first compound 2.53 µM) | relative viability ([1]; first compound 8 µM) | relative viability ([2]; first compound 0.01 µM) | relative viability ([2]; first compound 0.03162 µM) | relative viability ([2]; first compound 0.1 µM) | relative viability ([2]; first compound 0.3162 µM) | relative viability ([2]; first compound 1 µM) | relative viability ([3]; first compound 0.8 µM) | relative viability ([3]; first compound 2.53 µM) | relative viability ([3]; first compound 8 µM) | relative viability ([4]; first compound 0.01 µM) | relative viability ([4]; first compound 0.03162 µM) | relative viability ([4]; first compound 0.1 µM) | relative viability ([4]; first compound 0.3162 µM) | relative viability ([4]; first compound 1 µM) |
| --- | --- | --- | --- | --- | --- | --- | --- | --- | --- | --- | --- | --- | --- | --- | --- | --- |
| LCLC-103H | 0.553 | 0.484 | 0.51 | 0.772 | 0.651 | 0.695 | 0.768 | 0.713 | 0.507 | 0.505 | 0.439 | 0.732 | 0.695 | 0.795 | 0.819 | 0.725 |
| LK-2 | 0.36 | 0.37 | 0.432 | 0.279 | 0.215 | 0.282 | 0.301 | 0.286 | 0.213 | 0.199 | 0.229 | 0.459 | 0.354 | 0.425 | 0.448 | 0.472 |
| LOU-NH91 | 0.576 | 0.567 | 0.68 | 0.829 | 0.787 | 0.796 | 0.823 | 0.79 | 0.722 | 0.718 | 0.79 | 0.76 | 0.721 | 0.746 | 0.721 | 0.667 |
| LU99A | 0.652 | 0.603 | 0.629 | 1.21 | 0.702 | 0.915 | 0.926 | 1 | 0.302 | 0.296 | 0.302 | 0.394 | 0.325 | 0.483 | 0.319 | 0.338 |
| LXF-289 | 0.163 | 0.141 | 0.153 | 0.377 | 0.36 | 0.387 | 0.333 | 0.424 | 0.877 | 0.64 | 0.749 | 1.08 | 0.993 | 1.17 | 0.973 | 1.22 |
| NCI-H23 | 1.03 | 1.04 | 0.907 | 0.338 |  | 0.334 | 0.341 | 0.301 | 0.62 | 0.711 | 0.594 | 0.249 |  | 0.21 | 0.303 | 0.227 |
| NCI-H322M | 0.261 | 0.267 | 0.288 | 0.591 | 0.675 | 0.721 | 0.717 | 0.762 | 0.61 | 0.501 | 0.506 | 0.538 | 0.697 | 0.625 | 0.597 | 0.582 |
| NCI-H358 | 0.124 | 0.144 | 0.148 | 0.204 | 0.208 | 0.216 | 0.206 | 0.182 | 0.743 | 0.751 | 0.543 | 0.486 | 0.493 | 0.49 | 0.52 | 0.578 |
| NCI-H441 | 0.868 | 0.501 | 0.577 | 0.216 | 0.211 | 0.253 | 0.277 | 0.244 | 0.669 | 0.517 | 0.62 | 1.02 | 0.782 | 1.21 | 0.948 | 1.03 |
| NCI-H460 | 0.654 | 0.459 | 0.574 | 0.52 | 0.44 | 0.509 | 0.645 | 0.462 | 0.882 | 0.699 | 0.723 | 0.797 | 0.675 | 0.682 | 0.737 | 0.785 |
| NCI-H520 | 0.235 | 0.211 | 0.26 | 0.568 | 0.542 | 0.469 | 0.501 | 0.554 | 0.298 | 0.21 | 0.281 |  |  |  |  |  |
| NCI-H522 | 0.821 | 0.904 | 1.07 | 0.736 | 0.544 | 0.712 | 0.775 | 0.638 | 0.615 | 0.754 | 0.903 | 0.914 | 0.734 | 0.914 | 0.89 | 0.843 |
| NCI-H596 | 0.594 | 0.566 | 0.52 | 0.985 | 0.805 | 0.882 | 1.02 | 0.891 | 0.71 | 0.6 | 0.716 | 1.17 | 1.01 | 1.03 | 1.1 | 0.917 |
| NCI-H661 | 1.03 | 0.886 | 0.832 | 0.589 | 0.507 | 0.525 | 0.581 | 0.585 | 0.737 | 0.788 | 0.738 |  |  |  |  |  |
| NCI-H1563 | 0.402 | 0.427 | 0.435 |  |  |  |  |  | 0.792 | 0.734 | 0.854 |  |  |  |  |  |
| NCI-H1623 | 0.528 | 0.51 | 0.493 |  |  |  |  |  | 0.469 | 0.389 | 0.484 |  |  |  |  |  |
| NCI-H1648 |  |  |  | 0.545 |  | 0.357 | 0.47 | 0.472 | 0.248 | 0.254 | 0.185 | 0.809 |  | 0.697 | 0.643 | 0.625 |
| NCI-H1650 | 0.343 | 0.316 | 0.389 | 0.482 | 0.456 | 0.427 | 0.472 | 0.407 | 0.58 | 0.542 | 0.603 |  |  |  |  |  |
| NCI-H1703 |  |  |  |  |  |  |  |  |  |  |  | 0.137 | 0.102 | 0.125 |  | 0.124 |
| NCI-H2009 | 0.241 | 0.249 | 0.302 | 0.385 | 0.373 | 0.351 | 0.382 | 0.371 | 0.588 | 0.567 | 0.568 |  |  |  |  |  |
| NCI-H2023 | 0.547 | 0.434 | 0.369 | 0.25 | 0.285 | 0.208 | 0.218 | 0.213 | 0.41 | 0.279 | 0.286 |  |  |  |  |  |
| NCI-H2228 | 0.415 | 0.401 | 0.363 |  |  |  |  |  | 0.542 | 0.348 | 0.521 |  |  |  |  |  |
| SK-LU-1 | 0.161 | 0.166 | 0.177 | 0.657 | 0.537 | 0.597 | 0.643 | 0.56 | 0.355 | 0.286 | 0.358 |  |  |  |  |  |
| SK-MES-1 | 0.318 | 0.332 | 0.255 | 0.341 | 0.406 | 0.327 | 0.352 | 0.371 | 0.639 | 0.647 | 0.443 |  |  |  |  |  |
| SW 1573 | 0.576 | 0.46 | 0.451 | 0.537 | 0.461 | 0.401 | 0.507 | 0.45 | 0.863 | 0.619 | 0.487 |  |  |  |  |  |
